Test results: ChEMBL document CHEMBL4359822, “Design, synthesis of 4,5-diazafluorene derivatives and their anticancer activity via targeting telomeric DNA G-quadruplex” (Eur J Med Chem, 2019)
Values belong to the molecule of their own block, whether it stands above or below them. The source made the active and inactive calls. The calls are words filed in the database; no cut-off is given here.

Key:
[1] = test system: A549; test: Antiproliferative activity against human A549 cells at 10 uM incubated for 36 hrs by CCK8 assay; format: functional, cell-based
[2] = test system: AGS; test: Antiproliferative activity against human AGS cells at 10 uM incubated for 36 hrs by CCK8 assay; format: functional, cell-based
[3] = test system: HepG2; test: Antiproliferative activity against human HepG2 cells at 10 uM incubated for 36 hrs by CCK8 assay; format: functional, cell-based
[4] = test system: MCF7; test: Antiproliferative activity against human MCF7 cells at 10 uM incubated for 36 hrs by CCK8 assay; format: functional, cell-based
[5] = test system: A549; test: Antiproliferative activity against human A549 cells incubated for 36 hrs by CCK8 assay; format: functional, cell-based; details: A549, 36 h
[6] = test system: AGS; test: Antiproliferative activity against human AGS cells incubated for 36 hrs by CCK8 assay; format: functional, cell-based
[7] = test system: HepG2; test: Antiproliferative activity against human HepG2 cells incubated for 36 hrs by CCK8 assay; format: functional, cell-based; details: HepG2, 36 h
[8] = test system: MCF7; test: Antiproliferative activity against human MCF7 cells incubated for 36 hrs by CCK8 assay; format: functional, cell-based; details: MCF7, 36 h
[9] = test system: MRC5; test: Antiproliferative activity against human MRC5 cells incubated for 36 hrs by CCK8 assay; format: cell-based; details: MRC5, 36 h
[10] = Selectivity index, ratio of IC50 for human MRC5 cells to IC50 for human A549 cells; format: toxicity; details: MRC5 cells versus A549 cells, read-out: Ratio IC50
[11] = Selectivity index, ratio of IC50 for human MRC5 cells to IC50 for human AGS cells; format: toxicity; details: MRC5 cells versus AGS cells, read-out: Ratio IC50
[12] = Selectivity index, ratio of IC50 for human MRC5 cells to IC50 for human HEPG2 cells
[13] = Selectivity index, ratio of IC50 for human MRC5 cells to IC50 for human MCF7 cells; format: toxicity; details: MRC5 cells versus MCF7 cells, read-out: Ratio IC50
[14] = Binding affinity to Tel-26nt G-rich DNA (unknown origin) assessed as change in melting temperature at 2 uM by UV-vis spectrophotometry (reference value: 38.33 +/- 0.07 degreeC)
[15] = Binding affinity to Tel-26nt G-rich DNA (unknown origin) assessed as change in melting temperature at 4 uM by UV-vis spectrophotometry (reference value: 38.33 +/- 0.07 degreeC)
[16] = Binding affinity to Tel-26nt G-rich DNA (unknown origin) assessed as change in melting temperature at 8 uM by UV-vis spectrophotometry (reference value: 38.33 +/- 0.07 degreeC)
[17] = target: Telomerase reverse transcriptase (Homo sapiens) (UniProt O14746); test: Inhibition of telomerase activity in human A549 cells at 2 to 8 uM by TRAP assay; format: cell-based
Telomerase reverse transcriptase (Homo sapiens), sequence (O14746 whole entry): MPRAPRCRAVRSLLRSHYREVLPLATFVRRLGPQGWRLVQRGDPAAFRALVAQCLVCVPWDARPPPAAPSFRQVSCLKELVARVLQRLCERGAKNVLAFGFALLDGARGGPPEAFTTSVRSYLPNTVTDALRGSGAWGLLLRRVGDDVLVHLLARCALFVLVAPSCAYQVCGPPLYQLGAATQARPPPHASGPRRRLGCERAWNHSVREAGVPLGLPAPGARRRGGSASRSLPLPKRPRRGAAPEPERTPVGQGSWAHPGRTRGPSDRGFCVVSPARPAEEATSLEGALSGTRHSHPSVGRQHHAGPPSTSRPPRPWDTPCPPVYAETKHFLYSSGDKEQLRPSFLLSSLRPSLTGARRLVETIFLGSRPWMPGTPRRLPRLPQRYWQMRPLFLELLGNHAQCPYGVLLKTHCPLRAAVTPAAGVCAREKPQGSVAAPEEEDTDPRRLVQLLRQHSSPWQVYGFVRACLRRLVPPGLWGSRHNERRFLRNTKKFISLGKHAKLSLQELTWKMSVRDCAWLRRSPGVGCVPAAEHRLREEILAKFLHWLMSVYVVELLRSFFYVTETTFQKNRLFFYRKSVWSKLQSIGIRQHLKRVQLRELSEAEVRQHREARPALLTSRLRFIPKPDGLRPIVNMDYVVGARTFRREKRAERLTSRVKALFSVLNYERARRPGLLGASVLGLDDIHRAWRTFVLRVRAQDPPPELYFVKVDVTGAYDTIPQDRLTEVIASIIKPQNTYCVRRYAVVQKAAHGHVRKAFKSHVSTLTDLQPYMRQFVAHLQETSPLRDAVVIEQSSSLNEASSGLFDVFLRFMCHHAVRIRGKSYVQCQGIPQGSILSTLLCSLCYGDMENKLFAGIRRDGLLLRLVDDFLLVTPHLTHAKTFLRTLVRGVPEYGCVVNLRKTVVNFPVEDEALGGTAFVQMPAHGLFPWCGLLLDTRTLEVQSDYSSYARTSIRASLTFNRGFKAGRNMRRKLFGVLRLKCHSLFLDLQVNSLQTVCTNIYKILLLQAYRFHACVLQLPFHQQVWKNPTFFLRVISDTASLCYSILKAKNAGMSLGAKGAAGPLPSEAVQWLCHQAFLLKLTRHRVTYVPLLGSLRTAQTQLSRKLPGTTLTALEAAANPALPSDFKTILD

[18] = test system: A549; test: Inhibition of cell migration in human A549 cells at 0.1 uM incubated for 48 hrs by wound healing assay relative to control; format: functional; details: A549, 48 h
[19] = test system: A549; test: Inhibition of cell migration in human A549 cells at 0.2 uM incubated for 48 hrs by wound healing assay relative to control; format: functional; details: A549, 48 h
[20] = test system: A549; test: Inhibition of cell migration in human A549 cells at 0.4 uM incubated for 48 hrs by wound healing assay relative to control; format: functional; details: A549, 48 h
[21] = test system: AGS; test: Inhibition of cell migration in human AGS cells at 0.1 uM incubated for 48 hrs by wound healing assay relative to control; format: functional
[22] = test system: AGS; test: Inhibition of cell migration in human AGS cells at 0.2 uM incubated for 48 hrs by wound healing assay relative to control; format: functional
[23] = test system: AGS; test: Inhibition of cell migration in human AGS cells at 0.4 uM incubated for 48 hrs by wound healing assay relative to control; format: functional
[24] = test system: HepG2; test: Inhibition of cell migration in human HepG2 cells at 0.1 uM incubated for 48 hrs by wound healing assay relative to control; format: functional; details: HepG2, 48 h
[25] = test system: HepG2; test: Inhibition of cell migration in human HepG2 cells at 0.2 uM incubated for 48 hrs by wound healing assay relative to control; format: functional; details: HepG2, 48 h
[26] = test system: HepG2; test: Inhibition of cell migration in human HepG2 cells at 0.4 uM incubated for 48 hrs by wound healing assay relative to control; format: functional; details: HepG2, 48 h
[27] = test system: MCF7; test: Inhibition of cell migration in human MCF7 cells at 0.1 uM incubated for 48 hrs by wound healing assay relative to control; format: functional; details: MCF7, 48 h
[28] = test system: MCF7; test: Inhibition of cell migration in human MCF7 cells at 0.2 uM incubated for 48 hrs by wound healing assay relative to control; format: functional; details: MCF7, 48 h
[29] = test system: MCF7; test: Inhibition of cell migration in human MCF7 cells at 0.4 uM incubated for 48 hrs by wound healing assay relative to control; format: functional; details: MCF7, 48 h
[30] = Binding affinity to Tel-26nt G-rich DNA (unknown origin) at => 3 uM incubated for 24 hrs by EMSA
[31] = Binding affinity to Tel-26nt G-rich DNA (unknown origin) assessed as change in melting temperature by UV-vis spectrophotometry
[32] = Binding affinity to Tel-26nt G-rich DNA (unknown origin) incubated for 24 hrs by EMSA
[33] = Binding affinity to Tel-26nt G-rich DNA (unknown origin) at 0.25 :1 to 6 : 1 ratio of test compound to DNA measured after each titration for 15 mins during 24 hrs incubation by circular dichroism analysis
[34] = Binding affinity to Tel-26nt G-rich DNA (unknown origin) at 4 to 16 uM measured after each titration for 15 mins during 24 hrs incubation by circular dichroism analysis
[35] = Binding affinity to Tel26nt double stranded DNA (unknown origin) at 4 to 16 uM measured after each titration for 15 mins during 24 hrs incubation by circular dichroism analysis
[36] = Binding affinity to Tel-26nt mutated-single-stranded DNA (unknown origin) at 4 to 16 uM measured after each titration for 15 mins during 24 hrs incubation by circular dichroism analysis
[37] = Binding affinity to Tel-26nt G-rich DNA (unknown origin) assessed as change in melting temperature at 2 uM by UV-vis spectrophotometry

SMILES: Clc1ccc(-c2nn(Cc3ccccc3)cc2C=C2c3cccnc3-c3ncccc32)cc1
growth inhibition (GI) [1]: Active
growth inhibition (GI) [2]: Active
growth inhibition (GI) [3]: Active
growth inhibition (GI) [4]: Active

SMILES: Fc1ccc(-c2n[nH]cc2C=C2c3cccnc3-c3ncccc32)cc1
growth inhibition (GI) [1]: Active
growth inhibition (GI) [2]: Active
growth inhibition (GI) [3]: Active
growth inhibition (GI) [4]: Active

SMILES: Cc1ccc(-c2nnc(CN3C(=O)C(=C4c5cccnc5-c5ncccc54)SC3=S)o2)cc1
growth inhibition (GI) [1]: Active
growth inhibition (GI) [2]: Active
growth inhibition (GI) [3]: Active
growth inhibition (GI) [4]: Active

SMILES: Brc1ccc(-c2nn(Cc3ccccc3)cc2C=C2c3cccnc3-c3ncccc32)cc1
growth inhibition (GI) [1]: Active
growth inhibition (GI) [2]: Active
growth inhibition (GI) [3]: Active
growth inhibition (GI) [4]: Active

IC50 [5]: 3.44 µM
IC50 [6]: 2.93 µM
IC50 [7]: 3.32 µM
IC50 [8]: 6.7 µM
Tm [14]: 44 °C
Tm [15]: 44 °C
Tm [16]: 62.7 °C
inhibition [17]: Active
Activity [30]: Active
deltaTm [31]: Dose-dependent effect
Activity [32]: Dose-dependent effect
SMILES: CN(C)CCCn1cc(C=C2c3cccnc3-c3ncccc32)c(-c2ccc(F)cc2)n1
IC50 [9]: 5.93 µM
selectivity ratio [10]: 1.72
selectivity ratio [11]: 2.02
Ratio IC50 [12]: 1.79
selectivity ratio [13]: 0.88
inhibition at 0.1 µM [18]: 18.3%
inhibition at 0.2 µM [19]: 47.9%
inhibition at 0.4 µM [20]: 74.5%
inhibition at 0.1 µM [21]: 44.5%
inhibition at 0.2 µM [22]: 67.8%
inhibition at 0.4 µM [23]: 81.6%
inhibition at 0.1 µM [24]: 22.4%
inhibition at 0.2 µM [25]: 53.7%
inhibition at 0.4 µM [26]: 69.9%
inhibition at 0.1 µM [27]: 24.9%
inhibition at 0.2 µM [28]: 45.7%
inhibition at 0.4 µM [29]: 63.9%
growth inhibition (GI) [1]: Active
growth inhibition (GI) [2]: Active
growth inhibition (GI) [3]: Active
growth inhibition (GI) [4]: Active

SMILES: Clc1ccc(-c2n[nH]cc2C=C2c3cccnc3-c3ncccc32)cc1
growth inhibition (GI) [1]: Active
growth inhibition (GI) [2]: Active
growth inhibition (GI) [3]: Active
growth inhibition (GI) [4]: Active

SMILES: O=[N+]([O-])c1ccc(-n2cc(C=C3c4cccnc4-c4ncccc43)c(-c3ccc(Br)cc3)n2)c([N+](=O)[O-])c1
growth inhibition (GI) [1]: Active
growth inhibition (GI) [2]: Active
growth inhibition (GI) [3]: Active
growth inhibition (GI) [4]: Active

SMILES: O=[N+]([O-])c1ccc(-n2cc(C=C3c4cccnc4-c4ncccc43)c(-c3ccc(F)cc3)n2)c([N+](=O)[O-])c1
growth inhibition (GI) [1]: Active
growth inhibition (GI) [2]: Active
growth inhibition (GI) [3]: Active
growth inhibition (GI) [4]: Active

SMILES: O=[N+]([O-])c1ccc(-n2cc(C=C3c4cccnc4-c4ncccc43)c(-c3ccc(Cl)cc3)n2)c([N+](=O)[O-])c1
growth inhibition (GI) [1]: Active
growth inhibition (GI) [2]: Active
growth inhibition (GI) [3]: Active
growth inhibition (GI) [4]: Active

Tm [14]: 43.1 °C
Tm [15]: 56.1 °C
Tm [16]: 47 °C
Activity [30]: inactive
Activity [33]: Active
Activity [34]: Active
Activity [35]: inactive
Activity [36]: inactive
deltaTm [31]: Dose-dependent effect
Activity [32]: Dose-dependent effect
SMILES: O=C1C(=C2c3cccnc3-c3ncccc32)SC(=S)N1Cc1nnc(-c2ccc(Br)cc2)o1
growth inhibition (GI) [1]: Active
growth inhibition (GI) [2]: Active
growth inhibition (GI) [3]: Active
growth inhibition (GI) [4]: Active

SMILES: Cc1ccc(-c2n[nH]cc2C=C2c3cccnc3-c3ncccc32)cc1
growth inhibition (GI) [1]: Active
growth inhibition (GI) [2]: Active
growth inhibition (GI) [3]: Active
growth inhibition (GI) [4]: Active

SMILES: Fc1ccc(-c2nn(Cc3ccccc3)cc2C=C2c3cccnc3-c3ncccc32)cc1
growth inhibition (GI) [1]: Active
growth inhibition (GI) [2]: Active
growth inhibition (GI) [3]: Active
growth inhibition (GI) [4]: Active

SMILES: O=C1C(=C2c3cccnc3-c3ncccc32)SC(=S)N1Cc1nnc(-c2ccc(Cl)cc2)o1
growth inhibition (GI) [1]: Active
growth inhibition (GI) [2]: Active
growth inhibition (GI) [3]: Active
growth inhibition (GI) [4]: Active

IC50 [5]: 4.15 µM
IC50 [6]: 5.52 µM
IC50 [7]: 6.43 µM
IC50 [8]: 11.8 µM
Tm [14]: 45.6 °C
Tm [15]: 45.7 °C
Tm [16]: 43.4 °C
inhibition [17]: Active
Activity [30]: Active
deltaTm [31]: Dose-dependent effect
ΔTm [37]: 4.82 °C
Activity [32]: Dose-dependent effect
SMILES: CN(C)CCCn1cc(C=C2c3cccnc3-c3ncccc32)c(-c2ccc(Cl)cc2)n1
IC50 [9]: 9.81 µM
selectivity ratio [10]: 2.36
selectivity ratio [11]: 1.78
Ratio IC50 [12]: 1.52
selectivity ratio [13]: 0.83
inhibition at 0.1 µM [18]: 21.2%
inhibition at 0.2 µM [19]: 54.5%
inhibition at 0.4 µM [20]: 78%
inhibition at 0.1 µM [21]: 37.5%
inhibition at 0.2 µM [22]: 56%
inhibition at 0.4 µM [23]: 80%
inhibition at 0.1 µM [24]: 19.4%
inhibition at 0.2 µM [25]: 43.2%
inhibition at 0.4 µM [26]: 62.3%
inhibition at 0.1 µM [27]: 17.9%
inhibition at 0.2 µM [28]: 41.2%
inhibition at 0.4 µM [29]: 54.8%
growth inhibition (GI) [1]: Active
growth inhibition (GI) [2]: Active
growth inhibition (GI) [3]: Active
growth inhibition (GI) [4]: Active

SMILES: Cc1ccc(-c2nn(Cc3ccccc3)cc2C=C2c3cccnc3-c3ncccc32)cc1
growth inhibition (GI) [1]: Active
growth inhibition (GI) [2]: Active
growth inhibition (GI) [3]: Active
growth inhibition (GI) [4]: Active

SMILES: Brc1ccc(-c2n[nH]cc2C=C2c3cccnc3-c3ncccc32)cc1
growth inhibition (GI) [1]: Active
growth inhibition (GI) [2]: Active
growth inhibition (GI) [3]: Active
growth inhibition (GI) [4]: Active

SMILES: Cc1ccc(-c2nn(-c3ccc([N+](=O)[O-])cc3[N+](=O)[O-])cc2C=C2c3cccnc3-c3ncccc32)cc1
growth inhibition (GI) [1]: Active
growth inhibition (GI) [2]: Active
growth inhibition (GI) [3]: Active
growth inhibition (GI) [4]: Active

SMILES: O=C(O)CN1C(=O)C(=C2c3cccnc3-c3ncccc32)SC1=S
growth inhibition (GI) [1]: Active
growth inhibition (GI) [2]: Active
growth inhibition (GI) [3]: Active
growth inhibition (GI) [4]: Active
